Data published in the NIST ThermoML archive (doi:10.1016/j.fluid.2010.02.038).
± gives the expanded uncertainty stated by the source.

Assay: relative permittivity at various frequencies (dimensionless); xn = mol fraction of the nth substance listed
Conditions: 303.15 K, 101 kPa, Liquid, Frequency=1 MHz, Capacitive measurement method at f=1 MHz

relative permittivity (x2 = 0)	relative permittivity (x2 = 0.068)	relative permittivity (x2 = 0.141)	relative permittivity (x2 = 0.22)	relative permittivity (x2 = 0.305)	relative permittivity (x2 = 0.397)	relative permittivity (x2 = 0.497)	relative permittivity (x2 = 0.606)	relative permittivity (x2 = 0.725)	relative permittivity (x2 = 0.856)	Structure (SMILES)
36.55 ± 0.22	–	–	–	–	–	–	–	–	–	CN(C)C=O [dimethylformamide] + NCCO
106.14 ± 0.64	97.77 ± 1.3	90.12 ± 1.2	81.77 ± 1.1	74.02 ± 0.98	66.34 ± 0.87	59.14 ± 0.77	52.04 ± 0.71	44.61 ± 0.66	36.91 ± 0.53	NC=O [formamide] + NCCO
